Data set [1] can be described thus: log P by HPLC on a reversed-phase column (C 18), EEC Directive 79/831 Annex V.A8. The class given is physicochemical. The conditions noted are these: 55° C. In outline:
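Reversed-phase C18 HPLC at 55 °C, 10→95% acetonitrile linear gradient. log P (HCOOH) run at pH 2.7 with 0.1% formic acid; log P (neutral) at pH 7.8 with 0.001 M ammonium hydrogencarbonate. Calibrated by retention-time interpolation between unbranched C3–C16 alkan-2-ones of known log P.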

Another data set deals with Boophilus microplus. In words: Boophilus microplus injection test (BOOPMI Inj). The conditions noted are these: application rate 20 μg/animal; injection into engorged adult female cattle ticks; after 7 days. The class given is in vivo. The procedure: Boophilus microplus—Injection Test (BOOPMI Inj)
Solvent: dimethyl sulphoxide
To produce an appropriate active ingredient formulation, 10 mg of active ingredient are mixed with 0.5 ml of solvent and the concentrate is diluted with solvent to the desired concentration.
1 μl of the active ingredient solution is injected into the abdomen of 5 engorged adult female cattle ticks (Boophilus microplus). The animals are transferred into dishes and kept in a climate-controlled room.
Efficacy is assessed after 7 days by laying of fertile eggs. Eggs which are not visibly fertile are stored in a climate-controlled cabinet until the larvae hatch after about 42 days. An efficacy of 100% means that none of the ticks has laid any fertile eggs; 0% means that all the eggs are fertile.

For the next data set, the system named is Ctenocephalides felis. The experiment in a line: Ctenocephalides felis oral test (CTECFE). The class given is in vivo. As to conditions: application rate 100 ppm; in citrated cattle blood; after 2 days. As for the experimental part:
Ctenocephalides felis-Oral Test ([…]) Solvent: dimethyl sulphoxide For the purpose of producing an appropriate active ingredient formulation, 10 mg of active ingredient are mixed with 0.5 ml of dimethyl sulphoxide. Dilution with citrated cattle blood gives the desired concentration. About 20 unfed adult cat fleas (Ctenocephalides felis) are placed into a chamber which is closed at the top and bottom with gauze. A metal cylinder whose bottom end is closed with parafilm is placed onto the chamber. The cylinder contains the blood/active ingredient preparation, which can be imbibed by the fleas through the parafilm membrane. After 2 days, the kill in % is determined. 100% means that all of the fleas have been killed; 0% means that none of the fleas have been killed.

The test system of the next data set is Lucilia cuprina. The experiment in a line: Lucilia cuprina test (LUCICU). The class given is in vivo. The conditions noted are these: application rate 100 ppm; L1 larvae; after 2 days. The procedure:
Lucilia cuprina Test (LUCICU) Solvent: dimethyl sulphoxide To produce an appropriate active ingredient formulation, 10 mg of active ingredient are mixed with 0.5 ml of dimethyl sulphoxide, and the concentrate is diluted with water to the desired concentration. About 20 L1 larvae of the Australian sheep blowfly (Lucilia cuprina) are transferred into a test vessel containing minced horsemeat and the active ingredient preparation of the desired concentration. After 2 days, the kill in % is determined. 100% means that all the larvae have been killed; 0% means that none of the larvae have been killed.

The test system of data set [2] is Myzus persicae. In words: Myzus persicae spray test (MYZUPE), Chinese cabbage leaf discs. Format: in vivo. The conditions noted are these: application rate 500 g/ha, after 6 days. As for the experimental part: Myzus persicae—Spray Test (MYZUPE)
Solvent: 78 parts by weight of acetone • • 1.5 parts by weight of dimethylformamide
(§1) Emulsifier: alkylaryl poly glycol ether
To produce an appropriate active ingredient formulation, 1 part by weight of active ingredient is dissolved using the stated parts by weight of solvent and made up with water containing an emulsifier concentration of 1000 ppm until the desired concentration is attained. To produce further test concentrations, the preparation is diluted with emulsifier-containing water.
Discs of Chinese cabbage leaves (Brassica pekinensis) infested by all stages of the green peach aphid (Myzus persicae) are sprayed with an active ingredient formulation of the desired concentration.
After 6 days, the efficacy in % is determined. 100% means that all the aphids have been killed; 0% means that none of the aphids have been killed.

The subject of data set [3] is Myzus persicae. In words: Myzus persicae contact test (MYZUPE c). Format: in vivo. The conditions noted are these: 2.4 g/ha, 14 dat. The procedure: Myzus persicae—Contact Test (MYZUPE c)
(§2) Solvent: 7 parts by weight of dimethylformamide
as §1
(§3) To produce an appropriate active ingredient formulation, 1 part by weight of active ingredient is dissolved using the stated parts by weight of solvent and made up with water containing an emulsifier concentration of 1000 ppm until the desired concentration is attained. To produce further test concentrations, the preparation is diluted with emulsifier-containing water. In the event that addition of ammonium salts or/and penetrants (rapeseed oil methyl ester) is required, these are each pipetted in a concentration of 1000 ppm after the finished formulation solution has been diluted.
One-leaved bell pepper plants (Capsicum annuum) heavily infested by the green peach aphid (Myzus persicae) are treated by spraying the underside of the leaf with the active ingredient formulation in the desired concentration.
(§4) After the desired time, the kill in % is determined. 100% means that all the aphids have been killed and 0% means that none of the aphids have been killed.

In data set [4] the test system is Myzus persicae. The experiment in a line: Myzus persicae translaminar test (MYZUPE t). The class given is in vivo. As to conditions: 14 dat. As for the experimental part: Myzus persicae—Translaminar Test (MYZUPE t)
as §2, §1, §3
One-leaved bell pepper plants (Capsicum annuum) heavily infested by the green peach aphid (Myzus persicae) are treated by spraying the top side of the leaf with the active ingredient formulation in the desired concentration.
as §4

Data set [5] has as its system Aphis gossypii. The experiment in a line: Aphis gossypii contact test (APHIGO c). Format: in vivo. The conditions noted are these: 2.4 g/ha, 7 dat. The procedure: Aphis gossypii—Contact Test (APHIGO c)
as §2
(§5) Emulsifier: alkylaryl polyglycol ether
as §3
One-leaved cotton plants (Gossypium hirsutum) heavily infested by the cotton aphid (Aphis gossypii) are treated by spraying the underside of the leaf with the active ingredient formulation in the desired concentration.
as §4

Data set [6] has as its system Aphis gossypii. In words: Aphis gossypii translaminar test (APHIGO t). The conditions noted are these: 2.4 g/ha, 7 dat. The class given is in vivo. As for the experimental part:
Aphis gossypii—Translaminar Test (APHIGO t)
as §2, §5, §3
One-leaved cotton plants (Gossypium hirsutum) heavily infested by the cotton aphid (Aphis gossypii) are treated by spraying the top side of the leaf with the active ingredient formulation in the desired concentration.
as §4

The test system of a further data set is Nephotettix cincticeps. In words: Nephotettix cincticeps test (NEPHCI). As to conditions: 0.16 ppm. Format: in vivo. The procedure:
Nephotettix cincticeps Test (NEPHCI)
as §2, §5, §3
Rice plants (Oryza sativa, var. Balilla) are treated by spraying with the active ingredient formulation in the desired concentration and then populated with larvae of the green rice leafhopper (Nephotettix cincticeps).
After the desired time, the kill in % is determined. 100% means that all leafhoppers have been killed; 0% means that none of the leafhoppers have been killed.

The next data set deals with Nilaparvata lugens. The experiment in a line: Nilaparvata lugens test (NILALU). Format: in vivo. As to conditions: 4 ppm. The procedure:
Nilaparvata lugens Test (NILALU)
as §2, §5, §3
Rice plants (Oryza sativa, var. Balilla) are treated by spraying with the active ingredient formulation in the desired concentration and then populated with L3 larvae of the brown planthopper (Nilaparvata lugens).
After the desired time, the feeding damage in % is determined. 100% means that no feeding damage is found; 0% means that the feeding damage to the treated plant corresponds to that of the untreated control.

With `CCS(=O)(=O)c1cc(C(F)(F)F)cnc1-c1nc2cc(C(F)(F)F)ncc2n1C` [Example I-21], in data set [1] (acidic range, pH 2.7, 0.1% aqueous formic acid/acetonitrile), the LOGP_HCOOH is 2.98. The compound also showed an LOGP_NEUTRAL in data set [1] (neutral range, pH 7.8, 0.001 molar aqueous ammonium hydrogencarbonate/acetonitrile) of 2.93. Further, in the data set with Boophilus microplus, the “efficacy (laying of fertile eggs)” value came to 80%. The “efficacy (kill)” value in the data set on Ctenocephalides felis stood at 90%; in the data set on Lucilia cuprina it was 100%. The compound also gave an efficacy in the data set on Myzus persicae [2] of 90%. Also, the “% efficacy” value with Myzus persicae [3] stood at 85%; with Myzus persicae [4] (2.4 g/ha), 90%; with Myzus persicae [4] (12 g/ha), 98%; in the data set on Aphis gossypii [5], 98%; in the data set with Aphis gossypii [6] it was 65%; in the data set with Nephotettix cincticeps (14 dat), 90%. Also, the “% efficacy” value in the data set with Nephotettix cincticeps (21 dat) is on record as 95%; in the data set with Nephotettix cincticeps (34 dat), 100%; in the data set with Nilaparvata lugens (21 dat), 90%; in the data set with Nilaparvata lugens (28 dat), 100%.

(Values after patent publication US11274097B2, “2-(het)aryl-substituted condensed bicyclic heterocycle derivatives as pest control agents” (BAYER CROPSCIENCE AKTIENGESELLSCHAFT, priority 2014, dated 2022).)
